According to patent publication US8202687B2, “Method for transporting potassium ions from front side to back side of lipid bilayer membrane” (Panasonic Corporation, priority 2010, dated 2012):

Experiments:
[1] = target: T1, β1 adrenergic receptor (Rattus norvegicus, UniProt P18090); assay: Patch-clamp agonist concentration dependence in Gi/olf94 chimeric G protein expressing cells (present invention); type: cell-based; details: for Change Level in Current Density (relative value): Table 14, 100 = 30000 nM dopamine, 100 nM dobutamine, 30 nM ISO
T1 construct: expressed in transfected cells; host or cells: HEK293T
T1 sequence (P18090 whole entry): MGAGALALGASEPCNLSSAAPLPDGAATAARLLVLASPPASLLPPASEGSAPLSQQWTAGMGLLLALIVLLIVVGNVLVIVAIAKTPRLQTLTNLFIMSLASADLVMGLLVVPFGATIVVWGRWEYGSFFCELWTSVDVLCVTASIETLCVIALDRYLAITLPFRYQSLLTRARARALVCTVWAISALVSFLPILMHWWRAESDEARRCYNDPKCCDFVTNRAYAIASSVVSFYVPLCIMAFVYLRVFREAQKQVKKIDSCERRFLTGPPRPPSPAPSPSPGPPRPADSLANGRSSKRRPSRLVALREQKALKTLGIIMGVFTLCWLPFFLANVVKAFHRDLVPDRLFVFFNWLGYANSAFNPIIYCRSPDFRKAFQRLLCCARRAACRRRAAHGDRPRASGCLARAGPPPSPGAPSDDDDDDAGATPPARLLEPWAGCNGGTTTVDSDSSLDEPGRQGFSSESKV
Method: Membrane current of the chimeric G protein expressing cell was measured by using a patch-clamp technique. […] Procedure for the measurements is shown below.
Measurement operations were conducted under a microscope (“1X71” manufactured by Olympus, Inc.). A liquid circulation chamber was mounted on the silver/silver chloride (Ag/AgCl) electrode. A sample for measurement was placed in the liquid circulation chamber filled with Tyroad's buffer. At a state where a single cell was in contact with the tip of a glass electrode, negative pressure was applied in the glass electrode. The portion of a cell membrane in contact with the tip of the glass electrode was torn to form an equivalent circuit (Whole-cell mode). The electric potential difference between inside and outside a cell was kept at 0 mV by using a patch clamp amplifier (“EPC10” manufactured by HEKA Instrument Inc.). Under this mode, the Tyroad's buffer in the liquid circulation chamber was substituted with a GIRK buffer.
The GIRK buffer in the liquid circulation chamber was substituted with a sample solution.
Chemical substance detection sensitivity according to the present invention was compared to detection sensitivity of cAMP technique, which is a commonly used chemical substance detection technique. The cAMP technique is a technique for measuring an increase in cAMP concentration in an intracellular fluid caused by an interaction between an agonist and a receptor, and quantifying the concentration of the agonist based on the measured value. More particularly, cells expressing β1 adrenergic receptor and potassium ion channel Kir3.1 (F137S) were placed in contact with a buffer solution containing ISO, and then were homogenized. The concentration of cAMP contained in the obtained homogenate liquid was measured. The concentration measurement was performed by using a measurement kit (cyclic AMP EIA kit; Assay Designs, Inc.). The kit measures cAMP concentration by utilizing competitive EIA (competitive enzyme immunoassay). A cAMP concentration obtained when the ISO concentration inside of a buffer solution was 1000 nM was represented as 100 as a standard, and cAMP concentrations at respective ISO concentrations were calculated as ratios with regard to this standard cAMP concentration. […] A change value in current density obtained when the ISO concentration was 30 nM was represented as 100 as a standard, and change values in current density at respective ISO concentrations were calculated as ratios with regard to the standard change value.

[2] = system: β1 adrenergic receptor / potassium ion channel Kir3.1 (F137S) in HEK293T cells; assay: Patch-clamp membrane current of G protein expressing HEK293T cells with and without ISO; type: cell-based, rat (receptor), mouse (Kir3.1)
Method: A cell was obtained that expressed a chimeric G protein, a potassium ion channel, and a chemical substance receptor (hereinafter, the cell is referred to as “chimeric G protein expressing cell”). An electrophysiological activity of the chimeric G protein expressing cell was measured by using patch-clamp method. The chimeric G protein expressing cell was prepared in accordance with the following procedure. First, a chimeric G protein expression plasmid, a potassium ion channel expression plasmid, and a chemical substance receptor expression plasmid were prepared. Next, the three expression plasmids were transfected into HEK293T cells, and were then expressed inside the cells.
A chimeric G protein comprising Gi/olf13 as a chimeric Gα subunit was employed. The mutated potassium ion channel Kir3.1 (F137S) was employed as a potassium ion channel. The β1 adrenergic receptor was employed as a chemical substance receptor.
The plasmid (βAR), the plasmid Kir3.1 (F137S), and the plasmid (Gi/olf13) were expressed in HEK293T cells. The procedure for the expression is shown below. Approximately 80% confluent cultured HEK293T cells were collected, and plated on a new culture petri dish. The passage number of the used cells was not more than ten generations. DMEM (supplemented with 10% FBS (fetal bovine serum) and streptomycin) was used. After culturing the cells for 24 hours, the cells were transfected with the plasmids by using a transfection reagent. The cells were cultured for 48 hours after being transfected with the plasmids, and thereby chimeric G protein expressing cells were prepared.
Membrane current of the chimeric G protein expressing cell was measured by using a patch-clamp technique. Measurements were conducted with and without supplying isoproterenol (hereinafter, referred to as “ISO”) which was a β1 adrenergic receptor agonist. Procedure for the measurements is shown below.
The chimeric G protein expressing cells were plated on coverslips (3 mm×10 mm; Matsunami Glass Ind., Ltd.,) treated with PLL (poly-L-lysine) and kept still for four hours to obtain samples for the measurements.
Procedure for preparing glass electrodes used for the measurements is described below. […]
Measurement operations were conducted under a microscope (“1X71” manufactured by Olympus, Inc.). […] Pulse potentials (electric potential: −50 mV; duration time: 100 mS) were applied every 10 seconds, and membrane currents obtained upon the application were measured.
Next, membrane currents obtained when isoproterenol (hereinafter, abbreviated as “ISO”) which is a β1 adrenergic receptor agonist was brought into contact with the cell were measured in accordance with the following procedure. […]

Q: How did the “Change Level in Current Density (relative value)” value (“Change Level … (relative value)” below) ([1]; agonist 0.3 nM) turn out when CC(CCc1ccc(O)cc1)NCCc1ccc(O)c(O)c1 (stereo not shown) [dobutamine] was run?
A: The value was 0.67.

Q: And the “Change Level … (relative value)” value ([1]; agonist 3 nM)?
A: The value was 6.80.

Q: And the “Change Level … (relative value)” value ([1]; agonist 30 nM)?
A: Its value is 20.59.

Q: And the “Change Level … (relative value)” value ([1]; agonist 300 nM)?
A: The value was 99.15.

Q: And the “Change Level … (relative value)” value ([1]; agonist 3000 nM)?
A: Its value is 100.

Q: What about the EC50 ([1]; change in current density, Gi/olf94 cells, read-out: half maximal effective concentration (EC50)) of the same molecule?
A: Its EC50 is 50 nM.

B1: Gαolf: wild type G protein α subunit Gαolf (mouse), SEQ ID NO: 2 (protein, listed as Mus musculus)
chain: MGCLGNSSKTAEDQGVDEKERREANKKIEKQLQKERLAYKATHRLLLLGAGESGKSTIVKQMRILHVNGFNPEEKKQKILDIRKNVKDAIVTIVSAMSTIIPPVPLANPENQFRSDYIKSIAPITDFEYSQEFFDHVKKLWDDEGVKACFERSNEYQLIDCAQYFLERIDSVSLVDYTPTDQDLLRCRVLTSGIFETRFQVDKVNFHMFDVGGQRDERRKWIQCFNDVTAIIYVAACSSYNMVIREDNNTNRLRESLDLFESIWNNRWLRTISIILFLNKQDMLAEKVLAGKSKIEDYFPEYANYTVPEDATPDAGEDPKVTRAKFFIRDLFLRISTATGDGKHYCYPHFTCAVDTENIRRVFNDCRDIIQRMHLKQYELL
modifications: (1)..(381) bulbus olfactorius of mouse
Q: Which results are given for B1?
A: change level of current caused by addition of ISO ([2]; Reference Example): small; current value when ISO was supplied ([2]; Reference Example, FIG. 26-28, with ISO): approximately 0.5 nA; Change Level in Current Density ([2]; Table 11, difference of current density without vs with ISO 30 nM, pulse −50 mV, β1 adrenergic receptor + Kir3.1 (F137S) co-expressed): −22.59 pA/pF; Current Change Level ([2]; Table 15, Reference Example, change on contact with ISO): −0.37 nA
